Laboratory results published in publication PMC6934184, “Selective DNA-PKcs inhibition extends the therapeutic index of localized radiotherapy and chemotherapy” (The Journal of Clinical Investigation, 2019).

Biological target: T1, HIPK4 (Homo sapiens, UniProt Q8NE63)
T1 construct: purchased Thermo Fisher Scientific (Life Technologies) SelectScreen
Test: SelectScreen Z'LYTE
Type: biochemical
Summary of the method: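 SelectScreen broad panel; activity (Z'LYTE, Adapta) plus binding formats. ATP: Km app for CSF1R Z'LYTE; 10 for CAMK1 Adapta. Readout = % per kinase.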

T1 sequence (Q8NE63 whole entry): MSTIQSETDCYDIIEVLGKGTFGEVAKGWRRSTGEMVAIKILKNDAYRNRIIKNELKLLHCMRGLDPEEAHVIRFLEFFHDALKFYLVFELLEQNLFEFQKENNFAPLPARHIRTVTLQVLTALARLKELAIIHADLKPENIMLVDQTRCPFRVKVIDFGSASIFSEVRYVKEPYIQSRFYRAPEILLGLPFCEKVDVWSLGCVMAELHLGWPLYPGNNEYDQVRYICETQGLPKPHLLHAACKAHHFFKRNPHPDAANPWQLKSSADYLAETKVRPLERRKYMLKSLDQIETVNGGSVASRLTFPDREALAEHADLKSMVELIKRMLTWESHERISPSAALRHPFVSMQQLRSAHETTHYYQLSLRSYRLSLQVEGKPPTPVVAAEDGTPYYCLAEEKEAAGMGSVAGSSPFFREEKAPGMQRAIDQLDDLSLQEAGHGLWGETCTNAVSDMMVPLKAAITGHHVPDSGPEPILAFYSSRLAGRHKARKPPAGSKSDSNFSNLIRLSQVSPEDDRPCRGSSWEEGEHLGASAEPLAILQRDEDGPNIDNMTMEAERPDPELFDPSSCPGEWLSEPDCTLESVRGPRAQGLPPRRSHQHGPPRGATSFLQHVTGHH

CN(C(=O)CN1CCOCC1)c1ccc2sc3c(-c4cccc5c(=O)cc(N6CC7CCC(C6)O7)oc45)cccc3c2c1 [NU5455]
inhibition at 1 µM: 0.9%
